In PubChem BioAssay (NCI):
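Assay format: 96-well plates, 48-hour exposure. At the GI50, growth is halved. At the TGI there is no net growth.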

What was measured:
Experiment in all cases: growth of human tumour cells (NCI), 48 h
[1] = tested on: SNB-19 CNS
[2] = tested on: RPMI-8226 leukemia
[3] = tested on: MDA-MB-231 breast
[4] = tested on: SK-MEL-28 melanoma
[5] = tested on: SK-MEL-5 melanoma
[6] = tested on: SF-539 CNS
[7] = tested on: SN12C renal
[8] = tested on: NCI/ADR-RES ovarian
[9] = tested on: SK-MEL-2 melanoma
[10] = tested on: ACHN renal
[11] = tested on: KM12 colon
[12] = tested on: MOLT-4 leukemia
[13] = tested on: UO-31 renal
[14] = tested on: OVCAR-8 ovarian
[15] = tested on: HS 578T breast
[16] = tested on: MALME-3M melanoma
[17] = tested on: HOP-62 NSCLC
[18] = tested on: K-562 leukemia
[19] = tested on: OVCAR-4 ovarian
[20] = tested on: A498 renal
[21] = tested on: NCI-H226 lung
[22] = tested on: HT29 colon
[23] = tested on: NCI-H522 lung
[24] = tested on: NCI-H23 lung
[25] = tested on: EKVX NSCLC
[26] = tested on: U251 CNS
[27] = tested on: IGROV1 ovarian
[28] = tested on: OVCAR-3 ovarian
[29] = tested on: BT-549 breast

## O=C1C=C(SCCO)C(=O)c2ccccc21
[1]
  GI50: 1900 nM
  TGI: 4180 nM
[2]
  GI50: 2090 nM
  TGI: 5000 nM
[3]
  GI50: 1420 nM
  TGI: 3890 nM
[4]
  GI50: 2010 nM
  TGI: 4020 nM
[5]
  GI50: 1610 nM
  TGI: 2970 nM
[6]
  GI50: 1650 nM
  TGI: 3030 nM
[7]
  GI50: 1580 nM
  TGI: 3040 nM
[8]
  GI50: 2160 nM
  TGI: 5820 nM
[9]
  GI50: 1940 nM
  TGI: 3910 nM
[10]
  GI50: 1540 nM
  TGI: 2870 nM
[11]
  GI50: 2610 nM
  TGI: 9860 nM
[12]
  GI50: 1260 nM
  TGI: 4510 nM
[13]
  GI50: 1240 nM
  TGI: 2490 nM
[14]
  GI50: 2890 nM
  TGI: 10800 nM
[15]
  GI50: 2210 nM
  TGI: 7500 nM
[16]
  GI50: 1810 nM
  TGI: 3290 nM
[17]
  GI50: 1700 nM
  TGI: 3550 nM
[18]
  GI50: 1280 nM
  TGI: 4250 nM
[19]
  GI50: 1420 nM
  TGI: 2750 nM
[20]
  GI50: 13900 nM
  TGI: 27000 nM
[21]
  GI50: 16300 nM
  TGI: 36600 nM
[22]
  GI50: 2580 nM
  TGI: 6730 nM
[23]
  GI50: 1890 nM
  TGI: 3970 nM
[24]
  GI50: 1490 nM
  TGI: 3420 nM
[25]
  GI50: 1460 nM
  TGI: 3330 nM
[26]
  GI50: 1760 nM
  TGI: 3250 nM
[27]
  GI50: 3610 nM
  TGI: 14700 nM
[28]
  GI50: 1370 nM
  TGI: 2680 nM
[29]
  GI50: 1550 nM
